The target in the assay is Nonstructural protein 3 (Zika virus, UniProt A0A024AXB9). The assay can be described thus: Functional biochemical assay to identify treatments for viral infectious disease that targets Zika NS2B-NS3 protease. Utilizing a direct enzyme activity measurement method, reading the fluorescence intensity is used to characterize the relative potency of inhibitors as IC50. Also noted: species or system PRVABC59.

For 72 compounds, IC50 results are on record in ChEMBL document CHEMBL5604062, “ASAP - ZIKV NS2B-NS3 protease fluorescence dose response” (2024).

pIC50: −log10 of the molar value. “And” between values parts separate entries of the source, which are not always exact repeats. Equal values may be shown once. Bounds are passed on as bounds.

As a reminder, the pIC50 is the IC50 on a negative log10 scale, so that one unit is a factor of ten.

Sequence of Nonstructural protein 3 (A0A024AXB9 whole entry): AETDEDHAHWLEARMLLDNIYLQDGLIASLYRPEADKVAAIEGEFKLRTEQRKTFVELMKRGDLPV

With `c1cc2sccc2c(N2CCN(Cc3ccc4cn[nH]c4c3)CC2)n1`, the pIC50 is < 4.00. `O=C(O)c1sc2cccnc2c1Br`: the pIC50 was < 4.00. As for `COc1ccc2c(O)nn(S(=O)(=O)c3ccc(C(=O)O)cc3)c2c1`, the figure is < 4.00; as for `NC(=O)c1ccc(Cn2nnc(C=Cc3ccccc3)n2)cc1`, < 4.00; as for `Cc1nnnn1Cc1ncc(Br)s1`, < 4.00. As for `O=C(O)c1c(Br)sc2nnsc12`, the figure is 4.40. As for `O=S(=O)(CCOc1ccccc1)c1nccs1`, the figure is < 4.00; as for `O=c1[nH]c(CSc2ccccc2Cl)nc2ccsc12`, < 4.00. With `Cc1nnc(CSc2ncnc3sccc23)o1`, the pIC50 is < 4.00.

Consider `Cn1ncnc1Sc1nc(C2CCCC2)ns1`, for which the pIC50 was < 4.00. As for `O=c1c2ccccc2nnn1CSc1nnc(-c2ccccc2)o1`, the figure is < 4.00; as for `COCc1nn(CC#Cc2ccc(Cl)cc2)c(=O)o1`, < 4.00; as for `[O-][S@@+](Cc1ncccn1)c1ncccc1Br`, < 4.00. For the compound `C[C@H]1CCC[C@H](C(=O)Nc2cccc(CN)c2)O1`, the pIC50 is < 4.00. Regarding `NCc1cccc(NC(=O)[C@H]2C[C@@H](C(F)(F)F)C[C@@H](C(F)(F)F)C2)c1`, the pIC50 was < 4.00. Consider `O=S(=O)(c1cccs1)N1CCN(CC=Cc2ccccc2)CC1`, for which the pIC50 was < 4.00. `NCCc1ccc(NC(=O)c2cc(Cl)cc(CN)c2)cc1` had a negative-log IC50 (pIC50) of 5.09. As for `COCC=Cc1cccc([C@@H](NC(=O)OCc2ccccc2)C(=O)Nc2cccc(CN)c2)c1`, the figure is 4.57; as for `O=C(Nc1cc(Cl)cc(C(=O)Nc2cccc(-c3cc[nH]n3)c2)c1)OCc1ccccc1`, < 4.00; as for `NCCc1cc(Cl)cc(C(=O)Nc2cccc(CN)c2)c1`, 6.48. As for `Cn1cc([C@@H]2C[C@H](C(=O)Nc3cccc(CN)c3)CC(=O)N2)cn1`, the figure is < 4.00; as for `NCc1cccc(NC(=O)[C@@H](NC(=O)OCc2ccccc2)c2cccc(-c3ccc(CN)cc3F)c2)c1`, 4.49. `N[C@@H](CCO)c1cccc(NC(=O)c2cc(Cl)cc(NC(=O)OCc3ccccc3)c2)c1`: the negative logarithm of the IC50 (pIC50) was 4.40.

For `NCc1cccc(NC(=O)[C@@H]2[C@H](N)[C@@H]3CCCCC[C@@H]32)c1`, the pIC50 was < 4.00. In the case of `Cn1cc(NC(=O)c2cc(Cl)cc(NC(=O)OCc3ccccc3)c2)cn1`, the negative-log IC50 (pIC50) is < 4.00.

For the compound `NCc1cccc(CNC(=O)[C@H]2[C@H]3CCCCC[C@H]3[C@H]2NC(=O)OCc2ccccc2)c1`, the pIC50 was 4.91 and 4.22 and 4.57.

As for `NCc1cccc(NC(=O)[C@@H]2CCC[C@]3(CCNC3=O)C2)c1`, the pIC50 was < 4.00. As for `Brc1ccsc1CSc1cnn[nH]1`, the figure is < 4.00; as for `COC(=O)c1cc(NC(=O)OCc2ccccc2)cc(C(=O)Nc2cccc(CN)c2)c1`, 4.25.

With `Clc1snnc1CN1CCC(c2nc3ccccc3o2)CC1`, the negative-log IC50 (pIC50) was < 4.00.

For `O=C(Nc1cc(Cl)cc(C(=O)Nc2nccc([C@H]3CCCCN3)n2)c1)OCc1ccccc1`, the negative-log IC50 (pIC50) is < 4.00. As for `CC(C)[C@@H]1CC[C@@H](C)C[C@H]1C(=O)Nc1cccc(CN)c1`, the figure is < 4.00.

Compound `NCc1cccc(NC(=O)c2cc(Cl)cc(C(N)=O)c2)c1` gave a pIC50 of 5.87. Regarding `O=c1oc2cccnc2n1CC=Cc1ccccc1`, the pIC50 was < 4.00.

For the compound `NCc1cccc(NC(=O)[C@@H]2CCC[C@H](OC(F)(F)F)C2)c1`, the pIC50 was < 4.00. Turning to `Cn1c(Sc2nc3ccccc3o2)nc2sccc2c1=O`, the pIC50 was < 4.00.

For `Cc1cc(C(=O)Nc2cccc(CN)c2)cc(NCC(F)(F)F)n1`, the pIC50 was < 4.00. In the case of `Cc1cc(C(=O)Nc2cccc(CN)c2)c2nc(C)n(C)c2n1`, the pIC50 was < 4.00. As for `Cc1cc(C)c([C@@H](CC(=O)Nc2cccc(CN)c2)NC(=O)OCc2ccccc2)cc1C`, the figure is 5.25 and 5.20. As for `Cn1cc(-c2cccc([C@@H](NC(=O)OCc3ccccc3)C(=O)Nc3cccc(CN)c3)c2)ccc1=O`, the figure is 4.13; as for `CC(F)(F)c1cccc(NC(=O)c2cc(Cl)cc(NC(=O)OCc3ccccc3)c2)c1`, < 4.00; as for `O=C(Nc1cc(Cl)cc(C(=O)Nc2cccc(-c3nnn[nH]3)c2)c1)OCc1ccccc1`, 4.39.

On to `Nc1nc(S(=O)(=O)c2ccccc2)c(Cl)s1`, for which the pIC50 is < 4.00.

With `C[C@@H]1C[C@@H](C(=O)Nc2cccc(CN)c2)CCO1`, the pIC50 was < 4.00. For the compound `O=C(NCc1nccs1)c1sccc1Cl`, the negative-log IC50 (pIC50) is < 4.00. For `CN(C)[C@@H]1CCC[C@H](C(=O)Nc2cccc(CN)c2)C1`, the negative logarithm of the IC50 (pIC50) is < 4.00. As for `C[C@@H]1CCC[C@H](C(=O)Nc2cccc(CN)c2)O1`, the figure is < 4.00. Consider `NCc1cccc(NC(=O)c2cc(Br)cc3[nH]ccc23)c1`, for which the pIC50 was 5.33. As for `Cc1cc(C(F)(F)F)nc(C(=O)Nc2cccc(CN)c2)n1`, the figure is < 4.00. As for `CN(C)CCC(=O)N1CCC([C@@H](NC(=O)OCc2ccccc2)C(=O)Nc2cccc(CN)c2)CC1`, the figure is < 4.00; as for `NCc1cccc(NC(=O)[C@H]2COCC3(CCC3)O2)c1`, < 4.00; as for `NCc1cccc(NC(=O)c2cc(Cl)cc3[nH]ncc23)c1`, 6.05. For `CC[C@@H](Cc1nnn[nH]1)c1ccc(NC(=O)c2cc(Cl)cc(NC(=O)OCc3ccccc3)c2)cc1`, the negative logarithm of the IC50 (pIC50) was 4.73.

The compound `O=C(Nc1cc(Cl)cc(C(=O)Nc2cccc(Cc3nn[nH]n3)c2)c1)OCc1ccccc1` gave a negative logarithm of the IC50 (pIC50) of 4.19. As for `O=c1ccccn1-c1ncc(Br)cn1`, the figure is < 4.00; as for `NCc1cccc(NC(=O)[C@@H](NC(=O)OCc2ccccc2)c2cccc(-c3cncnc3)c2)c1`, < 4.00. As for `CC(=O)NCc1cccc(NC(=O)c2cc(Cl)cc(NC(=O)OCc3ccccc3)c2)c1`, the figure is < 4.00; as for `Cc1nnsc1Cn1ccc(Br)n1`, < 4.00; as for `C=C(C)c1cccc([C@@H](NC(=O)OCc2ccccc2)C(=O)Nc2cccc(CN)c2)c1`, 5.02. As for `NCc1cccc(NC(=O)c2cccc3c2CCC3)c1`, the figure is 4.71; as for `CNCc1cc(Cl)cc(C(=O)Nc2cccc(CN)c2)c1`, 5.85; as for `NCc1cccc(NC(=O)[C@@H](NC(=O)OCc2ccccc2)c2cccc(-c3ccc(N)nc3)c2)c1`, 4.36.

With `CC(C)(C)OC(=O)NCc1cc(Br)cc(NC(=O)c2cc(Cl)cc(NC(=O)OCc3ccccc3)c2)c1`, the negative-log IC50 (pIC50) is < 4.00.

Consider `O=S1(=O)CCN(CC#Cc2ccc3sncc3c2)CC1`, for which the negative-log IC50 (pIC50) was < 4.00. In the case of `COC(=O)c1cc2scc(Br)c2[nH]1`, the pIC50 is < 4.00.

For `N#Cc1csc(CSc2nnc(C(F)(F)F)s2)n1`, the pIC50 is < 4.00.

With `NCc1cc(NS(=O)(=O)c2ccc(Oc3ccccc3Cl)cc2)ccc1Cl`, the negative logarithm of the IC50 (pIC50) is < 4.00. For the compound `COc1ccc2c(c1)c(C(=O)Nc1cccc(CN)c1)c(C)n2C1CCCC1`, the negative-log IC50 (pIC50) was < 4.00. As for `CN1CC=C(c2cccc([C@@H](NC(=O)OCc3ccccc3)C(=O)Nc3cccc(CN)c3)c2)CC1`, the figure is 4.17; as for `NCc1cccc(NC(=O)c2cc(Cl)cc(CN3CCOCC3)c2)c1`, 4.28.

Compound `C[C@@H](N)c1cc(Cl)cc(C(=O)Nc2cccc(CN)c2)c1` showed a pIC50 of 5.47. As for `O=C(Nc1cc(Cl)cc(C(=O)Nc2cccc(-n3nn[nH]c3=O)c2)c1)OCc1ccccc1`, the figure is 4.51.
